The text below walks through data of patent publication US10669255B2, “Pyrrole derivatives” (HUA MEDICINE (SHANGHAI) LTD., priority 2016, dated 2020).

Bounds are passed on as bounds.

For the assay, the target named is T1, recombinant rat mGluR5 (Rattus norvegicus, UniProt P31424).
T1 construct: expressed in transfected cells
T1 sequence (P31424 21-1203): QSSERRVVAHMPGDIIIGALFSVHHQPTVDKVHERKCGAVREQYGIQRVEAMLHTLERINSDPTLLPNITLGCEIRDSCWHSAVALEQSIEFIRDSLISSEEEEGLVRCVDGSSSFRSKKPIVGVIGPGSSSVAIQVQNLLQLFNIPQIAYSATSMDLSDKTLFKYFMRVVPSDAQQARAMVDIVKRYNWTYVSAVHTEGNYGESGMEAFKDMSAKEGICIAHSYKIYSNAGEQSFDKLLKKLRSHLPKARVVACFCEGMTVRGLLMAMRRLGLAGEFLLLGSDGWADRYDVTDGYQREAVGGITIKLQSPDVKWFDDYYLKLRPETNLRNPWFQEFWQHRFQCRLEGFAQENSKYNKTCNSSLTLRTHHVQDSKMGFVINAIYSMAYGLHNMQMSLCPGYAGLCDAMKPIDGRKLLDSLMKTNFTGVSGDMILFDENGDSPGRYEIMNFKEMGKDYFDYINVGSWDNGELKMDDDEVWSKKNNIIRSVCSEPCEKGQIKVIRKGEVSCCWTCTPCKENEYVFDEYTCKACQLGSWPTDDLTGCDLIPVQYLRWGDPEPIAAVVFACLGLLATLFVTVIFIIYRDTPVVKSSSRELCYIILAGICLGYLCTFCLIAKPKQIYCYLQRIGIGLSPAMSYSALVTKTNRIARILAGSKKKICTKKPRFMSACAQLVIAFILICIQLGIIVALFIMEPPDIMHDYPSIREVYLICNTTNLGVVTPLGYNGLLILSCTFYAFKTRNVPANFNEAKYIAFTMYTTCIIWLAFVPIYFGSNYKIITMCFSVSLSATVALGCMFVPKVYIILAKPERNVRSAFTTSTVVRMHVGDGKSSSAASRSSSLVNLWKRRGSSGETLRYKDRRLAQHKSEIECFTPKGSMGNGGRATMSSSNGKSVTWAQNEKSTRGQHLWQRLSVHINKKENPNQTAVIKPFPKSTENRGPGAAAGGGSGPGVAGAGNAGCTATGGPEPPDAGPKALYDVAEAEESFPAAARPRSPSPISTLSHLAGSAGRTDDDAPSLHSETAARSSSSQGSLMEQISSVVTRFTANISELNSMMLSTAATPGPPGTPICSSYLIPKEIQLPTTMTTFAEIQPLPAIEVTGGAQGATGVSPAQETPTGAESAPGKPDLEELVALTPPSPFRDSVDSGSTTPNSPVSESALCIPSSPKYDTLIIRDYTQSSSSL
In words: Functional calcium flux assay (FLIPR), antagonism of glutamate-evoked [Ca2+]i increase. The class given is cell-based. The settings on record: HEK293 cells stably expressing recombinant rat mGluR5; Fluo-8; 15 min incubation of test compound, then submaximal glutamate. The protocol:
Functional Calcium Flux Assay Methodology
For functional assays, HEK293 cells stably expressing recombinant rat mGluR5 were seeded in 384-well plates and dye loaded using Fluo-8. Cells were then washed to remove the un-incorporated dye. Antagonist evaluation was performed following a 15 min incubation of the test compound followed by the addition of submaximal concentration of glutamate. Intracellular calcium ([Ca^2+]i) measurements were performed using a fluorometric imaging plate reader (FLIPR, Molecular Devices). The glutamate-evoked increase in [Ca^2+]i in the presence of the test compounds was compared to the response to glutamate alone (the positive control). Antagonist inhibition curves were fitted with a 4-parameter logistic equation giving IC50 values, and Hill coefficients using an iterative nonlinear curve fitting algorithm.
The tables below provide IC50 data in this assay. In the activity column, A=IC50 >1,000 and ≤5,000 nM; B=IC50>500 and ≤1,000 nM and C=IC50≤500 nM.
As to `N#Cc1cc(F)cc(-n2ccc(C#Cc3ccccn3)c2)c1` [Example Compound 6, 3-fluoro-5-(3-(pyridin-2-ylethynyl)-1H-pyrrol-1-yl)benzonitrile], the IC50 was ≤ 500 nM.

For `Fc1ccc(-n2cc(C#Cc3ncccn3)c3ccccc32)cc1` [Example Compound 4, 1-(4-fluorophenyl)-3-(pyrimidin-2-ylethynyl)-1H-indole], the IC50 was ≤ 500 nM.

Take `Fc1ccc(-n2ccc(C#Cc3ccccc3)c2)cc1` [Example Compound 7, 1-(4-fluorophenyl)-3-(phenylethynyl)-1H-pyrrole]: the IC50 is ≤ 500 nM.

As for `Cc1cc(C#Cc2ccccn2)c(C)n1-c1ccc(OC(F)(F)F)cc1` [Example Compound 8, 2-((2,5-dimethyl-1-(4-(trifluoromethoxy)phenyl)-1H-pyrrol-3-yl)ethynyl)pyridine], the IC50 is ≤ 500 nM.

Turning to `N#Cc1cc(I)cc(-n2cc(C#Cc3ccccn3)c3ccccc32)c1` [Example Compound 1, 3-iodo-5-(3-(pyridin-2-ylethynyl)-1H-indol-1-yl)benzonitrile], the IC50 was ≤ 500 nM.

`N#Cc1cc(F)cc(-n2cc(F)c(C#Cc3ccccn3)c2)c1` [Example Compound 5, 3-fluoro-5-(3-fluoro-4-(pyridin-2-ylethynyl)-1H-pyrrol-1-yl)benzonitrile]: the concentration for half-maximal inhibition (IC50) is ≤ 500 nM.

As to `Cc1cc(C#Cc2ccncc2)c(C)n1-c1ccc(OC(F)(F)F)cc1` [Example Compound 10, 4-((2,5-dimethyl-1-(4-(trifluoromethoxy)phenyl)-1H-pyrrol-3-yl)ethynyl)pyridine], the IC50 was 1000 to 5000 nM.

Regarding `Cc1cc(C#Cc2ncccn2)c(C)n1-c1ccc(OC(F)(F)F)cc1` [Example Compound 9, 2-((2,5-dimethyl-1-(4-(trifluoromethoxy)phenyl)-1H-pyrrol-3-yl)ethynyl)pyrimidine], the IC50 was ≤ 500 nM.

As to `N#Cc1cc(F)cc(-n2cc(C#Cc3ccccn3)c3ccccc32)c1` [Example Compound 2, 3-fluoro-5-(3-(pyridin-2-ylethynyl)-1H-indol-1-yl)benzonitrile], the IC50 is ≤ 500 nM.

Regarding `Fc1ccc(-n2cc(C#Cc3ccccn3)c3ccccc32)cc1` [Example Compound 3, 1-(4-fluorophenyl)-3-(pyridin-2-ylethynyl)-1H-indole], the IC50 is ≤ 500 nM.
